Experimental data as given in patent US6020374A, “Biologically active synthetic dye compounds” (priority 1998, dated 2000).

Key:
Type in all cases: cell-based
[1] = test system: MCF-7 cells; assay: Cell death estimation, cycloheximide-exposed MCF-7 cells (trypan blue)
Description: Subconfluent cultures of MCF-7 cells in 35 mm dishes, were deprived of serum for 20 hours and then exposed to 30 μg/ml cycloheximide in the presence or absence of increasing concentrations of fractionated ATA, crude ATA or EB. After 48 hours, the cells were detached with trypsin. The medium and the detached cells were pooled and centrifuged at 1000×g for 10 mins. Cell viability was estimated by adding an equivalent volume of trypan blue solution to an aliquot of suspended cells. Stained and unstained cells were counted on a hemocytometer (10^3 cells were counted for each determination).
Subconfluent, 20 hours starved MCF-7 cells were exposed to 30 μg/ml
of cycloheximide in the presence of increasing
concentrations of fractionated ATA (0, 6, 12, 25, 50 μg/ml). After
48 hours, percent of dead cells was
determined as described under "Experimental procedures". In the
presence of cycloheximide only, 60-70% of
the cells were dead after 48 hours.
Cultures of […] cells were exposed to 30 μg CX for 48 hours in the presence of EB, ATA, IGF-1, or nothing.

[2] = test system: 185 kDa protein(s) (p185); assay: Tyrosine phosphorylation of p185 in MCF-7 cells (anti-phosphotyrosine immunoblot); conditions: MCF-7 cells pre-incubated 3 hours with 50 μM vanadate
Description: FIG. 1 is the effect of ATA and EB on tyrosine phosphorylation: MCF-7 cells, grown in 35 mm dishes were solubilized in Buffer A (a) or Buffer B (b-c). The solubilized cells were subjected to 7.5% SDS-PAGE and immunoblotted with an anti-phosphotyrosine antibody. (a) Cells treated for 5 mins. with ATA, EB, each at 300 μg/ml, IGF-1 at 20 ng/ml, or without additives (CON); (b) Cells treated with 300 μg/ml ATA for the indicated times; (c) Cells treated with 30 μg/ml EB for the indicated times; (d) Cells treated for 5 mins. with the indicated concentrations of ATA; (e) Cells treated for 5 mins. with the indicated concentrations of EB. Molecular mass markers (in kDa) are indicated on the right.
FIG. 2 is the effect of ATA and vanadate on the IGF-1 stimulated tyrosine phosphorylation of p185: A--Cells treated for 5 mins. with the indicated concentrations of IGF-1 in the presence or absence of 300 μg/ml ATA; B--Cells pre-incubated for 3 hours with or without 50 μM vanadate were incubated for 5 mins. with ATA, EB each at 300 μg/ml or with 10 ng/ml IGF-1 in the presence or absence of vanadate. Cytosols extracted in Buffer B were analyzed by immunoblotting with anti-phosphotyrosine antibody as in FIG. 1.
FIG. 8 is the effect of fractionated ATA on p185 phosphorylation: A--Crude ATA was separated on a Bio-Rad P-4 column and the combined void volume was then gel filtrated on a column of Bio-Rad P-10. The column was calibrated with the following molecular weight markers: DB-Dextran blue; CC-cytochrome C: Ins-insulin; B12-Vitamin B12. B--MCF-7 cells were incubated for 5 mins. with the indicated fractions of ATA (eluted from the P-10 column shown in A), crude ATA, each at 200 μg/ml or IGF-1 at 20 ng/ml. Cytosols, solubilized in Buffer B were subjected to 7.5% SDS-PAGE and immunoblotted with phosphotyrosine antibody.
(§1) MCF-7 cells were grown in 35 or 100 mm dishes in DMEM with 5% bovine fetal serum. Rat hepato FaO cells were grown in RPMI 1640 medium supplemented with 10% fetal calf serum. Subconfluent monolayers of MCF-7 cells or FaO cells, were deprived of serum for 20 hours prior to each experiment. The medium was removed, and cells were incubated at 37° C. under the conditions as indicated for each experiment. The reaction was terminated by removing the medium and freezing the monolayers with liquid nitrogen. In some experiments, cells were preincubated with 50 μM sodium orthovanadate for 3 hours.
Cells were solubilized at 4° C. with 0.2 ml/35 mm dish or 2 ml/100 mm dish of the indicated buffer. The solubilized cells were scraped and sedimented by centrifugation at 12,000×g for 30 mins. at 4° C. Aliquots of the supernatants were normalized for protein, mixed with concentrated (5×) Laemmli sample buffer, boiled for 10 mins. and resolved on 7.5 or 12% SDS-PAGE under reducing conditions.
(§2) Nitrocellulose blots of proteins were incubated with the antibodies, and proteins were detected by enhanced chemiluminescence using horseradish peroxidase-labeled protein A, horseradish peroxidase-labeled anti rabbit IgG or horseradish peroxidase-labeled anti-mouse IgG.

[3] = biological target: T1, IR (Rattus norvegicus, UniProt P15127); assay: Tyrosine phosphorylation of IR in FaO cells; conditions: 3 hour preincubation with vanadate, 5 min. incubations with EB and insulin
T1 construct: determined in the rat hepatoma cell line FaO; endogenous in cells; host or cells: FaO (rat hepatoma)
T1 sequence (P15127 764-1383 limits assumed): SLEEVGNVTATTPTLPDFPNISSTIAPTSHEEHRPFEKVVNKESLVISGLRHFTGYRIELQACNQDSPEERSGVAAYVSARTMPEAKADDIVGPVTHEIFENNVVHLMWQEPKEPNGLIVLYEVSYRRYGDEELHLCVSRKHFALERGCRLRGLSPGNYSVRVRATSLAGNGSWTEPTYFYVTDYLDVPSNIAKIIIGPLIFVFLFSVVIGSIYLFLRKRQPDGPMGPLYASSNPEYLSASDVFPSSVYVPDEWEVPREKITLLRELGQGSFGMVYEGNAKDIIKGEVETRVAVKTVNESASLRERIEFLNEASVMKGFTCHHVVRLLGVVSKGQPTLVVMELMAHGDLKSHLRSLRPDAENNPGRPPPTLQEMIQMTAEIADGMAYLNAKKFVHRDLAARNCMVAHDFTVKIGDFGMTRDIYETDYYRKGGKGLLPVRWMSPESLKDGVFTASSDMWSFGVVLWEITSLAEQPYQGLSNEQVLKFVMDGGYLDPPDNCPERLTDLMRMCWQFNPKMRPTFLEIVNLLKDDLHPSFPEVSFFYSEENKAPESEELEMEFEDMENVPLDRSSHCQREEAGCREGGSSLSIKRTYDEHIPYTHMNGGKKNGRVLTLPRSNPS
T1 sequence (P15127 27-759 limits assumed): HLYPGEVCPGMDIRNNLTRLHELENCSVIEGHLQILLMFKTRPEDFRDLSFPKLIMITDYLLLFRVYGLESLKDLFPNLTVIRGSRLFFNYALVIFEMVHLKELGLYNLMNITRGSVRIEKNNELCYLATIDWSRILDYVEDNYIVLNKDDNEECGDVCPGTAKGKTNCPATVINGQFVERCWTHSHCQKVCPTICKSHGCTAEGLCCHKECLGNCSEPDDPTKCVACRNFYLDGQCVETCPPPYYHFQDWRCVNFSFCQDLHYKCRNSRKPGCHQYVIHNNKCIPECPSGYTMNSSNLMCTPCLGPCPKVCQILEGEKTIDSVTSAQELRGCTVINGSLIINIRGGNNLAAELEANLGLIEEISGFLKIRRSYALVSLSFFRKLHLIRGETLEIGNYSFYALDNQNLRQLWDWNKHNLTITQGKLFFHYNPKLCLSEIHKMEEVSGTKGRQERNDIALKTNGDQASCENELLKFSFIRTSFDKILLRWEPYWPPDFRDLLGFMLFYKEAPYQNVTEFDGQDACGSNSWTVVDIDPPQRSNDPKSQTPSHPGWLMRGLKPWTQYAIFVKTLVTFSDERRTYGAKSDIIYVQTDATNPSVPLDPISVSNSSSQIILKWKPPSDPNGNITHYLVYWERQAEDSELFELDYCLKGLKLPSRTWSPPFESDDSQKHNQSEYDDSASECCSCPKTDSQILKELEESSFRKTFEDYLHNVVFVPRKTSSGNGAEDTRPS
Description: FIG. 9 is the tyrosine phosphorylation of the IR cascade in Fao cells: A--Immunoblot analysis: Fao cells were deprived of serum for 20 hours, then incubated with EB, ATA, at 200 μg/ml or insulin at 600 ng/ml for 5 mins. Cell extracts were subjected to immunoprecipitation with antibodies to: IR β-subunit (αIR), IRS-1 (αIRS-1) and to IRS-2 (αIRS-2). The immunoprecipitates and total cell extracts were analyzed by SDS-PAGE. Proteins were transferred to nitrocellulose papers, and phosphotyrosine containing proteins were probed with anti-phosphotyrosine antibodies (αP-Tyr), antibody to the 85-kDa subunit of PI3-kinase (αp85) and antibodies to active MAPK (α active MAPK). The immunoblots were visualized by ECL (Amersham).
B--Kinetics of IR phosphorylation: Cells were treated either with 200 μg/ml EB for the indicated times (top panel) or with the indicated concentrations of EB for 5 mins. (middle panel). A 3 hour preincubation with vanadate preceded the 5 min. incubations with EB and insulin (bottom panel).
as §1
Cells were solubilized in Buffer A or C. Extracts were immunoprecipitated at 4° C. with antibodies to IRS-1, IRS-2, IGF-1 or IR receptor or Grb2, adsorbed on protein A-Sepharose beads. The immunocomplexes were pelleted by centrifugation at 12,000×g and washed twice with Buffer A, and twice with Buffer A containing 0.1% Triton x-100. The pellets were then suspended in Laemmli sample buffer and resolved on 7.5% SDS-PAGE.
as §2
The ability of EB and ATA to phosphorylate the IR was determined in the rat hepatoma cell line FaO. […] Phosphorylation is maximal after a 1 min. exposure to 70 μg/ml of EB (FIG. 9B, top and middle panels).

Row | Compound | Percent dead cells ([1]; CX only, 30 μg, 48 hours, Control without CX 10 ± 3) [%] | cytotoxicity at 30 µg/mL ([1]; Homo sapiens, MCF7, 48 h, read-out: cells dead after 48 hours) [%] | Effect on phosphorylation of p185 induced by IGF-1, ATA and EB [2] | Effect on IR phosphorylation induced by insulin [3]
1 | C[C@@H]1C[C@@H]([C@H](O)CC2CC(=O)NC(=O)C2)C(=O)[C@@H](C)C1 [CX, cycloheximide, reference compound] | 56 ± 5 | 60 to 70 |  | 
2 | [Na+].[Na+].[Na+].[O]=[V]([O-])([O-])[O-] [Vanadate, sodium orthovanadate, reference compound] |  |  | markedly enhanced | enhances
